Measured values reported in US20250144227A1, “C-16 MODIFIED TRIOXACARCINS, ANTIBODY DRUG CONJUGATES, AND USES THEREOF” (President and Fellows of Harvard College, priority 2021, published 2025).
Where two headings read alike, the source gives them in different places.

Legend:
MES-SA/Dx-5 cells = assay: Cell proliferation assay (resazurin, CellTiter-Blue), MES-SA/Dx-5 cells; type: cell-based; conditions: Homo sapiens
Method: (§1) Cell Culture: All cell-culture work was conducted in a class II biological safety cabinet. H460 cells (P2-P4, American Type Culture Collection) were maintained in RPMI-1640 medium supplemented with 10% fetal bovine serum (FBS). HL-60 cells (P2-P4, American Type Cuture Collection) were maintained in RPMI-1640 medium supplemented with 10% FBS. MES-SA/Dx-5 cells (P2-P4, European Collection of Authenticated Cell Cultures) were maintained in McCoy's 5A medium supplemented with 10% FBS.
(§2) Cell Proliferation Assay: H460 and MES-SA/Dx-5 cells were grown to approximately 80% confluence, and then were trpysinized, collected, and pelleted by centrifugation (10 min at 183 x g, 24° C.), and HL-60 cells were grown to confluence and directly pelleted by centrifugation (10 min at 183 × g, 24° C.). The supernatant was discarded and the cell pellet was resuspended in 10 mL of fresh medium. A sample was diluted 10-fold in fresh medium, and the concentration of cells was determined using a hemacytometer. The cell suspension was diluted to a concentration of 3000 cells/100 μL. The wells of a pre-sterilized 96-well plate were charged with 100 μL per well of the diluted cellular suspension. The plate was incubated for 24 h at 37° C. (5% CO2).
(§3) Stock solutions of each compound in DMSO were diluted with the appropriate media to 100 nM solutions (1% DMSO), which were then serially diluted with the appropriate media, and 100-uL aliquots of the resulting solutions were added to the wells containing adhered cells to achieve final concentrations of 0.39 nM to 50 nM. After incubating at 37° C. for 72 h (5% CO2), 20 μL of resazurin solution (Promega CellTiter-Blue® Cell Viability Assay) was added to each well. After incubating at 37° C. for 2.0 h (5% CO2), the fluorescence (544 nm excitation/590 nm emission) was recorded using a microplate reader (SpectraMax PLUS384) as a measure of viable cells.
(§4) Percent growth inhibition was calculated for each well, based upon the following formula: Percent growth inhibition=100×(S−B0)/(Bt−B0) where S is the sample fluorescence, Bt is the average fluorescence of an untreated population of cells at the completion of the assay, and B0 is the average fluorescence of an untreated population of cells at the beginning of the assay.
(§5) Each compound was assayed at eight separate concentrations per experiment. The percent inhibition at each concentration was plotted against log (concentration), and a curve fit was generated using the XLfit4 plugin (IDBS Software) running in Excel (Microsoft). GI50 values were computed to reflect the concentrations at which the resulting curves pass through 50% inhibition.

H460 cells = assay: Cell proliferation assay (resazurin, CellTiter-Blue), H460 cells; type: cell-based; conditions: for GI50: Homo sapiens, NCI-H460, 72 h; for Effect of the C16 modification on potency (in words): comment on the data of Table 2 (H460 cells)
Method: as §1, §2, §3, §4, §5

[1] = 1H NMR studies of decomposition of the C16 thiol; type: physicochemical; conditions: on an hour time scale
[2] = Drug-linker stability assay (LC-MS); type: physicochemical; conditions: after 1 week, physiologically relevant pH and temperature (37 C)
Method: Stability Assay: In a 1.5 mL screw-top conical plastic vial, 42 (FIG. 1A) or 39 (FIG. 1B) was dissolved in 270 μL of DMSO (5 mM). 12 μL of this DMSO drug-linker solution was mixed with 576 μL pH 5.0 sodium acetate buffer (50 mM sodium acetate, 100 mM NaCl, 4 mM EDTA). 1-naphthalene acetic acid in DMSO (12 μL, 5 mM, 1 equiv.) was added as an internal standard. The vial was then placed in a heating block at 37 C and protected from direct light. 25 μL aliquots of the reaction mixture were removed at 0 h, 4 h, 24 h, 48 h, 72 h, and 1 week and analyzed by LC-MS. LC-MS peaks were integrated using Agilent OpenLab ChemStation and the areas of each peak were normalized to 1-napthalene acetic acid at 280 nM. Percent drug-linker remaining is defined as the normalized peak area at a given time point divided by the normalized peak area at 0 hours x 100%. Each assay was also performed at pH 7.4 (phosphate-buffered solution, Corning), and assays at each pH value were performed with and without the addition of 8 mM N-acetylcysteine.

cathepsin B = biological target: T1, cathepsin B (Homo sapiens, UniProt P07858); assay: Drug-linker release assay with cathepsin B (LC-MS); type: in vitro ADME; conditions: cathepsin B enzyme solution in buffer; cathepsin B added, pH 5.0 sodium acetate buffer, 37 C; read-out: Half-life of liberation of the C16 primary amine warhead
T1 construct: purchased Enzo Life Sciences
Method: Release Assay: In a 1.5 mL screw-top conical plastic vial, 42 was dissolved in 270 μL of DMSO (5 mM). 12 μL of this DMSO drug-linker solution was mixed with a DMSO solution of N-acetylcysteine (10 mM, 12 μL, 2 equiv.). To the solution was then added 510 μL pH 5.0 sodium acetate buffer (50 mM sodium acetate, 100 mM NaCl, 4 mM EDTA, 8 mM N-acetylcysteine). 1—Naphthalene acetic acid in DMSO (12 μL, 5 mM, 1 equiv.) was added as an internal standard. The vial was then placed in a heating block at 37 C for 30 minutes. After 30 minutes, 54 μL of cathepsin B solution (379 U/mL, Enzo Life Sciences) was added. The vial was returned to the heating block at 37 C and protected from direct light. 25 μL aliquots of the reaction mixture were removed at 0 min, 20 min, 40 min, 60 min, 120 min, and 180 min and analyzed by LC-MS. LC-MS peaks were integrated using Agilent OpenLab ChemStation and the areas of each peak were normalized to 1-napthalene acetic acid at 280 nM. Percent drug-linker remaining is defined as the normalized peak area at a given time point divided by the normalized peak area at 0 hours×100% (FIG. 2A). A similar procedure was used for the release assay of 39, using glucuronidase instead of cathepsin B (FIG. 2B).

[3] = system: Ramos cells (B lymphocyte cells); assay: Growth inhibition of Ramos cells; type: cell-based; conditions: Homo sapiens
Method: as §3, §4, §5

[4] = patients with metastatic cancer; only problematic at doses beyond those which affected tumor volume decrease; cited from earlier work
[5] = MES-SA/Dx5, MES-SA/Dx-5 cells, 72 h incubation, read-out: GI50

COc1c2c(c(O)c3c4c(c(C)cc13)C1OC3(CO)OC1[C@@](OC)(O4)[C@@]31CO1)C(=O)CCC2 (stereo partly drawn) [TP-1] showed a GI50 (MES-SA/Dx-5 cells; MES-SA/Dx5, 72 h) of 0.008 µM.

Work on COc1c2c(c(O)c3c4c(c(C)cc13)C1OC3(COCc5ccccc5)OC1[C@@](O)(O4)[C@@]31CO1)C(=O)CCC2 (stereo partly drawn) [TP-4] yielded a GI50 (MES-SA/Dx-5 cells; [5]) of over 0.1 µM.

With CCCOCC12OC3c4c(C)cc5c(OC)c6c(c(O)c5c4O[C@](OC)(C3O1)[C@@]21CO1)C(=O)CCC6 (stereo partly drawn) [TP-5] the GI50 (MES-SA/Dx-5 cells; [5]) was 0.025 µM.

Work on C=CCOCC12OC3c4c(C)cc5c(OC)c6c(c(O)c5c4O[C@](OC)(C3O1)[C@@]21CO1)C(=O)CCC6 (stereo partly drawn) [TP-6] yielded a GI50 (MES-SA/Dx-5 cells; [5]) of 0.017 µM.

Work on C#CCOCC12OC3c4c(C)cc5c(OC)c6c(c(O)c5c4O[C@](OC)(C3O1)[C@@]21CO1)C(=O)CCC6 (stereo partly drawn) [TP-7] yielded a GI50 (MES-SA/Dx-5 cells; MES-SA/Dx5, 72 h) of 0.015 µM.

COc1c2c(c(O)c3c4c(c(C)cc13)C1OC3(CN=[N+]=[N-])OC1[C@@](OC)(O4)[C@@]31CO1)C(=O)CCC2 (stereo partly drawn) [TP-9] gave a GI50 (MES-SA/Dx-5 cells; MES-SA/Dx5, 72 h) of 0.033 µM.

Molecule COc1c2c(c(O)c3c4c(c(C)cc13)C1OC3(COC5CC(C)(O)C(OC(C)=O)C(C)O5)OC1[C@@](OC)(O4)[C@@]31CO1)C(=O)CCC2 (stereo partly drawn) [TP-12] has a GI50 (MES-SA/Dx-5 cells; MES-SA/Dx5, 72 h) of 0.05 µM.

With COc1c2c(c(O)c3c4c(c(C)cc13)C1OC3(CS)OC1[C@@](OC)(O4)[C@@]31CO1)C(=O)CCC2 (stereo partly drawn) [compound 34, (25,2'S,3a′R,13a′R)-12′-hydroxy-2′-(mercaptomethyl)-7′,13a′-dimethoxy-5′-methyl-3a′, 4′,8′,9′,10′,13a′-hexahydro-2′H,11′H-spiro [oxirane-2,1′-[2,4]epoxyfuro[3,2-b]naphtho[2,3-h]chromen]-11′-one] the GI50 (H460 cells) was over 0.1 µM, the “Effect of the C16 modification on potency (in words)” value (H460 cells) was “lack of activity” and the “Decomposition of the unprotected thiol” value [1] was “rapid, non-productive, decomposition pathway”.

In the case of COc1c2c(c(O)c3c4c(c(C)cc13)[C@@H]1O[C@]3(COP(=O)(O)O)O[C@@H]1[C@@](OC)(O4)[C@@]31CO1)C(=O)CCC2 [compound 35, ((2R,2′R,3a'S,4'S,13a′R)-12′-hydroxy-7′,13a′-dimethoxy-5′-methyl-11′-oxo-3a′,8′,9′,10′,11′,13a′-hexahydro-2′H,4′H-spiro [oxirane-2,1′-[2,4]epoxyfuro[3,2-b]naphtho[2,3-h]chromen]-2′-yl)methyl dihydrogen phosphate], the GI50 (H460 cells) is reported as 0.035 µM and the “Effect of the C16 modification on potency (in words)” value (H460 cells) is reported as “good tolerance”.

For COc1c2c(c(O)c3c4c(c(C)cc13)[C@@H]1O[C@]3(CNC(=O)OCc5ccc(O[C@@H]6O[C@H](C(=O)O)[C@@H](O)[C@H](O)[C@H]6O)c(-n6cc(COCCOCCOCCOCCN7C(=O)C=CC7=O)nn6)c5)O[C@H]1[C@@](OC)(O4)[C@@]31CO1)C(=O)CCC2 [compound 39, (2S,3S,4S,5R,6S)-6-(2-(4-(13-(2,5-Dioxo-2,5-dihydro-1H-pyrrol-1-yl)-2,5,8,11-tetraoxatridecyl)-1H-1,2,3-triazol-1-yl)-4-((((((2R,2′R,3a′R,4'S,13a′R)-12′-hydroxy-7′,13a′-dimethoxy-5′-methyl-11′-oxo-3a′,8′,9′,10′,11′,13a′-hexahydro-2′H, 4′H-spiro [oxirane-2,1′-[2.4]epoxyfuro[3,2-b]naphtho[2,3-h]chromen]-2′-yl)methyl)carbamoyl)oxy)methyl)phenoxy)-3,4,5-trihydroxytetrahydro-2H-pyran-2-carboxylic acid], the Percent drug-linker remaining [2] was 75%.

In the case of COc1c2c(c(O)c3c4c(c(C)cc13)[C@H]1O[C@]3(CNC(=O)OCc5ccc(NC(=O)[C@H](C)NC(=O)[C@@H](NC(=O)CCOCCOCCOCCOCCN6C(=O)C=CC6=O)C(C)C)cc5)O[C@@H]1C(OC)(O4)[C@@]31CO1)C(=O)CCC2 (stereo partly drawn) [compound 42, 4-((17S,20S)-1-(2,5-dioxo-2,5-dihydro-1H-pyrrol-1-yl)-17-isopropyl-20-methyl-15,18-dioxo-3,6,9,12-tetraoxa-16,19-diazahenicosan-21-amido)benzyl (((2R,2′R,3a'S,4′R)-12′-hydroxy-7′,13a′-dimethoxy-5′-methyl-11′-oxo-3a′,8′,9′,10′, 11′, 13a′-hexahydro-2′H,4′H-spiro [oxirane-2,1′-[2,4]epoxyfuro[3,2-b]naphtho[2,3-h]chromen]-2′-yl)methyl)carbamate], the Percent drug-linker remaining [2] is reported as 75% and the half-life at 100 µM (cathepsin B) is reported as about 15 min.

Molecule COCC12OC3c4c(C)cc5c(OC)c6c(c(O)c5c4O[C@](OC)(C3O1)[C@@]21CO1)C(=O)CCC6 (stereo partly drawn) [compound 43, (2R,2′R,3a′R,4'S, 13a′R)-12′-hydroxy-7′, 13a′-dimethoxy-2′-(methoxymethyl)-5′-methyl-3a′ 4′,8′,9′,10′,13a′-hexahydro-2′H, 11′H-spiro[oxirane-2,1′-[2,4]epoxyfuro[3,2-b]naphtho[2,3-h]chromen]-11′-one] has a GI50 [3] of 0.0026 ± 0.0008 µM.

COc1c2c(c(O)c3c4c(c(C)cc13)C1OC3(C)OC1[C@@](OC)(O4)[C@@]31CO1)C(=O)CCC2 (stereo partly drawn) [compound 45, (2R,2′R,3a'S,4'S)-12′-hydroxy-7′,13a′-dimethoxy-2′,5′-dimethyl-3a′ 4′,8′,9′,10′,13a′-hexahydro-2′H,11′H-spiro [oxirane-2,1′-[2,4]epoxyfuro[3,2-b]naphtho[2,3-h]chromen]-11′-one] showed a GI50 [3] of 0.02 ± 0.005 µM.

For LL-D49194a1, the Dose-limiting toxicity [4] is given as “pancarditis was the only significant dose-limiting toxicity”.
